Here are results for 34 compounds from patent publication US6147100A, “Pyrrolidine derivatives having phospholipase A2 inhibitory activity” (Shionogi & Co., Ltd., priority 1997, dated 2000).

One assay has as its target T1, cPLA2 (Homo sapiens, UniProt P47712).
T1 sequence (P47712 1-749): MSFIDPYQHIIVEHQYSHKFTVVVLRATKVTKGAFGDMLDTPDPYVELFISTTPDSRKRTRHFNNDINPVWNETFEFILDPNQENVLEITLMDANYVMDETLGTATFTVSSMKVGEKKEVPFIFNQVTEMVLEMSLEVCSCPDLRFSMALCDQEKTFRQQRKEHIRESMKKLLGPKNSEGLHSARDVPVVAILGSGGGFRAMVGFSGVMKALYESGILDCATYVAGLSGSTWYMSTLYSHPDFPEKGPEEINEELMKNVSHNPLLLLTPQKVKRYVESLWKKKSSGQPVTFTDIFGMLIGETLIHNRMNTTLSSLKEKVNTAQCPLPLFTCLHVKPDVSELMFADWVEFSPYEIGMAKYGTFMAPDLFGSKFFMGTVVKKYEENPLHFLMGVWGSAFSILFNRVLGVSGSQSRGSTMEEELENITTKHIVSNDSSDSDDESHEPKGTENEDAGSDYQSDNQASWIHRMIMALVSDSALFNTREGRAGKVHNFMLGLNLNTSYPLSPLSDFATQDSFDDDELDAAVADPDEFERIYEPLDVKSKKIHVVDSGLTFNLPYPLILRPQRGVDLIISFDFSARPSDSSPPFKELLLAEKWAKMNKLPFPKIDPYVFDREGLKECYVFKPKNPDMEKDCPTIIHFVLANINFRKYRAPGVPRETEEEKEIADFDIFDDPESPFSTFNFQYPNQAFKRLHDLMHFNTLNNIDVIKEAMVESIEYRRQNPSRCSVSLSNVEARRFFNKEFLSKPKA
Put plainly: cPLA2 Inhibitory Activity. It counts as biochemical. The conditions noted are these: 1-palmitoyl-2-[14C]-arachidonoyl-sn-glycero-3-phosphocholine 2.5 μM, sn-1,2-dioleoylglycerol 1.25 μM; pH 7.5, 15 min at 37° C. Put shortly: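 Radiometric assay in 50 mM HEPES pH 7.5 with 1 mM CaCl2, 150 mM NaCl, 0.1 mg/ml BSA and 1.7 mM DTT; compound and substrate added, reaction started with enzyme, 15 min at 37° C. Released fatty acids extracted (Dole method), counted by liquid scintillation versus no-compound control.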

In assay [1] the test system is production of prostaglandin E2 by human fibroblasts. Description: Inhibition of Production of Prostaglandin E2 in Human Fibroblasts (IL-1 stimulation). It counts as cell-based. The conditions noted are these: Fibroblast; human fibroblasts under stimulation with IL-1. Put shortly: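 Human fibroblasts stimulated with IL-1, with prostaglandin E2 production measured in the presence of compound as a cellular read-out of cPLA2 inhibition.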

As to `O=C1NC(=O)/C(=C/c2ccc(C(=O)NC[C@@H]3C[C@@H](Oc4ccccc4-c4cccc(-c5ccccc5)c4)CN3C(=O)c3ccccc3C(=O)c3ccc(F)cc3)cc2)S1` [Compound A-112], the IC50 worked out at 65 nM at cPLA2 and 1700 nM in assay [1].
For `CC(C)c1ccccc1-c1ccccc1O[C@@H]1C[C@@H](CNC(=O)c2ccc(/C=C3\SC(=O)NC3=O)cc2)N(C(=O)c2ccccc2C(=O)c2ccc(F)cc2)C1` [Compound A-115], in that order: 10 nM and 4600 nM.
For `COc1cccc(-c2ccccc2)c1O[C@@H]1C[C@@H](CNC(=O)c2ccc(/C=C3\SC(=O)NC3=O)cc2)N(C(=O)c2ccccc2C(=O)c2ccc(F)cc2)C1` [Compound A-117], in that order: 15 nM and 200 nM.
For `COc1cccc(-c2cccc3ccccc23)c1O[C@@H]1C[C@@H](CNC(=O)c2ccc(/C=C3\SC(=O)NC3=O)cc2)N(C(=O)c2ccccc2C(=O)c2ccc(F)cc2)C1` [Compound A-118], in that order: 8 nM and 2200 nM.
`O=C1NC(=O)/C(=C/c2ccc(C(=O)NC[C@@H]3C[C@@H](Oc4ccccc4Oc4ccccc4)CN3C(=O)c3ccccc3C(=O)c3ccc(F)cc3)cc2)S1` [Compound A-119]: the IC50 against cPLA2 was determined as 30 nM; in assay [1], 2800 nM.
For `COc1cccc(-c2ccccc2C(C)C)c1O[C@@H]1C[C@@H](CNC(=O)c2ccc(/C=C3\SC(=O)NC3=O)cc2)N(C(=O)c2ccccc2C(=O)c2ccc(F)cc2)C1` [Compound A-120], in that order: 29 nM and 740 nM.
For `COc1cccc(-c2ccccc2OC(C)C)c1O[C@@H]1C[C@@H](CNC(=O)c2ccc(/C=C3\SC(=O)NC3=O)cc2)N(C(=O)c2ccccc2C(=O)c2ccc(F)cc2)C1` [Compound A-122], in that order: 35 nM and 1400 nM.
Taken in the same sequence, the figures for `O=C1NC(=O)/C(=C/c2ccc(NC(=O)[C@@H]3C[C@@H](OCc4ccccc4-c4ccccc4)CN3C(=O)c3ccccc3C(=O)c3ccc(F)cc3)cc2)S1` [Compound B-1] were 210 nM and 12000 nM.
`O=C1NC(=S)S/C1=C\c1ccc(NC(=O)[C@@H]2C[C@@H](OCc3ccccc3-c3ccccc3)CN2C(=O)c2ccccc2C(=O)c2ccc(F)cc2)cc1` [Compound B-2]: the results for the IC50 (at cPLA2; in assay [1]) were 84 nM and 4000 nM, respectively.
For `O=C1NC(=O)/C(=C/c2ccc(NC(=O)[C@@H]3C[C@@H](OCc4ccccc4-c4ccccc4)CN3C(=O)c3ccccc3C(=O)c3ccc(Cl)cc3)cc2)S1` [Compound B-3], in that order: 420 nM and 3900 nM.
Taken in the same sequence, the figures for `O=C1NC(=S)S/C1=C\c1ccc(NC(=O)[C@@H]2C[C@@H](OCc3ccccc3-c3ccccc3)CN2C(=O)c2ccccc2C(=O)c2ccc(Cl)cc2)cc1` [Compound B-4] were 130 nM and 5600 nM.
For `Cc1ccc(C(=O)c2ccccc2C(=O)N2C[C@H](OCc3ccccc3-c3ccccc3)C[C@H]2C(=O)Nc2ccc(/C=C3\SC(=O)NC3=O)cc2)cc1` [Compound B-5], in that order: 440 nM and 7400 nM.
For `Cc1ccc(C(=O)c2ccccc2C(=O)N2C[C@H](OCc3ccccc3-c3ccccc3)C[C@H]2C(=O)Nc2ccc(/C=C3\SC(=S)NC3=O)cc2)cc1` [Compound B-6], the IC50 turned out to be 140 nM against cPLA2 and 7100 nM in assay [1].
Taken in the same sequence, the figures for `O=C1NC(=S)S/C1=C\c1ccc(NC(=O)[C@@H]2C[C@@H](OCc3ccccc3-c3ccccc3)CN2C(=O)c2ccccc2C(=O)c2ccc(F)cc2)s1` [Compound B-7] were 1000 nM and 8100 nM.
For `O=C1NC(=O)/C(=C/c2ccc(NC(=O)[C@@H]3C[C@@H](OCc4ccccc4-c4ccccc4)CN3C(=O)c3ccccc3C(=O)c3ccc(F)cc3)s2)S1` [Compound B-8], in that order: 1000 nM and 2700 nM.
For `O=C1NC(=O)/C(=C/c2ccc(COC[C@@H]3C[C@@H](OCc4ccccc4-c4ccccc4)CN3C(=O)c3ccccc3C(=O)c3ccc(F)cc3)cc2)S1` [Compound C-1], in that order: 350 nM and 2300 nM.
Consider `O=C1NC(=S)S/C1=C\c1ccc(COC[C@@H]2C[C@@H](OCc3ccccc3-c3ccccc3)CN2C(=O)c2ccccc2C(=O)c2ccc(F)cc2)cc1` [Compound C-2], for which the IC50 against cPLA2 worked out at 1100 nM; in assay [1], 2200 nM.
Taken in the same sequence, the figures for `O=C1NC(=S)S/C1=C\c1ccc(CC[C@@H]2C[C@@H](OCc3ccccc3-c3ccccc3)CN2C(=O)c2ccccc2C(=O)c2ccc(F)cc2)cc1` [Compound E-1] were 1100 nM and 2200 nM.
For `O=C1NC(=O)/C(=C/c2ccc(CC[C@@H]3C[C@@H](OCc4ccccc4-c4ccccc4)CN3C(=O)c3ccccc3C(=O)c3ccc(F)cc3)cc2)S1` [Compound E-2], in that order: 280 nM and 1100 nM.
For `O=C1NC(=S)S/C1=C\c1ccc(C=C[C@@H]2C[C@@H](OCc3ccccc3-c3ccccc3)CN2C(=O)c2ccccc2C(=O)c2ccc(F)cc2)cc1` [Compound E-3], in that order: 730 nM and 6000 nM.
For `O=C1NC(=O)/C(=C/c2ccc(C=C[C@@H]3C[C@@H](OCc4ccccc4-c4ccccc4)CN3C(=O)c3ccccc3C(=O)c3ccc(F)cc3)cc2)S1` [Compound E-4], the IC50 was 1100 nM against cPLA2 and 1200 nM in assay [1].
For `O=C1NC(=S)S/C1=C\c1ccc(/C=C\[C@@H]2C[C@@H](OCc3ccccc3-c3ccccc3)CN2C(=O)c2ccccc2C(=O)c2ccc(F)cc2)s1` [Compound E-5], in that order: 750 nM and 3500 nM.
For `O=C1NC(=O)/C(=C/c2ccc(CCC[C@@H]3C[C@@H](OCc4ccccc4-c4ccccc4)CN3C(=O)c3ccccc3C(=O)c3ccc(F)cc3)cc2)S1` [Compound E-9], in that order: 1000 nM and 6500 nM.
`O=C1NC(=O)/C(=C/c2ccc(/C=C\C[C@@H]3C[C@@H](OCc4ccccc4-c4ccccc4)CN3C(=O)c3ccccc3C(=O)c3ccc(F)cc3)cc2)S1` [Compound E-12]: the concentration for half-maximal inhibition (IC50) against cPLA2 was found to be 350 nM; in assay [1], 5700 nM.
Regarding `O=C1NC(=O)/C(=C/c2ccc(/C=C/C[C@@H]3C[C@@H](OCc4ccccc4-c4ccccc4)CN3C(=O)c3ccccc3C(=O)c3ccc(F)cc3)cc2)S1` [Compound E-14], the IC50 on cPLA2 was 98 nM; in assay [1] it was 5600 nM.
For `O=C(C[C@@H]1C[C@@H](OCc2ccccc2-c2ccccc2)CN1C(=O)c1ccccc1C(=O)c1ccc(F)cc1)Nc1ccc(/C=C2\SC(=S)NC2=O)cc1` [Compound F-3], in that order: 420 nM and 3000 nM.
As for `CN(C[C@@H]1C[C@@H](OCc2ccccc2-c2ccccc2)CN1C(=O)c1ccccc1C(=O)c1ccc(F)cc1)C(=O)c1ccc(/C=C2\SC(=O)NC2=O)cc1` [Compound G-1], the values for the IC50 (against cPLA2; in assay [1]) were 780 nM and 980 nM, respectively.
Taken in the same sequence, the figures for `O=C1NC(=O)/C(=C/c2ccc(C(=O)NC[C@@H]3C[C@H](SCc4ccccc4-c4ccccc4)CN3C(=O)c3ccccc3C(=O)c3ccc(F)cc3)cc2)S1` [Compound I-1] were 100 nM and 260 nM.
Taken in the same sequence, the figures for `O=C1NC(=O)/C(=C/c2ccc(C(=O)NC[C@@H]3C[C@H](SCc4ccccc4)CN3C(=O)c3ccccc3C(=O)c3ccccc3)cc2)S1` [Compound I-2] were 1000 nM and 660 nM.
Taken in the same sequence, the figures for `O=C1NC(=O)/C(=C/c2ccc(S(=O)(=O)NC[C@@H]3C[C@@H](SCc4ccccc4-c4ccccc4)CN3C(=O)c3ccccc3C(=O)c3ccc(F)cc3)cc2)S1` [Compound I-3] were 55 nM and 980 nM.
As for `O=C1NC(=S)S/C1=C\c1ccc(S(=O)(=O)NC[C@@H]2C[C@@H](SCc3ccccc3-c3ccccc3)CN2C(=O)c2ccccc2C(=O)c2ccc(F)cc2)cc1` [Compound I-4], the values for the IC50 (against cPLA2; in assay [1]) were 480 nM and 1300 nM, respectively.
Turning to `O=C1NC(=O)/C(=C/c2ccc(C(=O)NC[C@@H]3C[C@@H](SCc4ccccc4-c4ccccc4)CN3C(=O)c3ccccc3C(=O)c3ccc(F)cc3)cc2)S1` [Compound I-5], the IC50 at cPLA2 was determined as 34 nM; in assay [1], 490 nM.
Taken in the same sequence, the figures for `O=C1NC(=S)S/C1=C\c1ccc(C(=O)NC[C@@H]2C[C@@H](SCc3ccccc3-c3ccccc3)CN2C(=O)c2ccccc2C(=O)c2ccc(F)cc2)cc1` [Compound I-6] were 71 nM and 260 nM.
Taken in the same sequence, the figures for `O=C1NC(=O)/C(=C/c2ccc(C(=O)NC[C@@H]3C[C@@H](SCc4ccccc4-c4ccccc4)CN3C(=O)c3ccccc3C(=O)c3ccc(F)cc3)s2)S1` [Compound I-7] were 39 nM and 690 nM.
